Experimental findings from patent publication US8933011B2, “Treatment of preterm labor with toll-like receptor 9 antagonists” (The Provost, Fellows and Scholars of the College of the …, priority 2008, dated 2015) are described below.

Molecules are shown by their SMILES. Entries after “also recorded” stand apart in the source; their conditions may differ.

The target of the test is T1, Toll-like Receptor 9 (Homo sapiens, UniProt Q9NR96).
T1 construct: endogenous in cells; host or cells: Namalwa cells
T1 sequence (Q9NR96 26-1032): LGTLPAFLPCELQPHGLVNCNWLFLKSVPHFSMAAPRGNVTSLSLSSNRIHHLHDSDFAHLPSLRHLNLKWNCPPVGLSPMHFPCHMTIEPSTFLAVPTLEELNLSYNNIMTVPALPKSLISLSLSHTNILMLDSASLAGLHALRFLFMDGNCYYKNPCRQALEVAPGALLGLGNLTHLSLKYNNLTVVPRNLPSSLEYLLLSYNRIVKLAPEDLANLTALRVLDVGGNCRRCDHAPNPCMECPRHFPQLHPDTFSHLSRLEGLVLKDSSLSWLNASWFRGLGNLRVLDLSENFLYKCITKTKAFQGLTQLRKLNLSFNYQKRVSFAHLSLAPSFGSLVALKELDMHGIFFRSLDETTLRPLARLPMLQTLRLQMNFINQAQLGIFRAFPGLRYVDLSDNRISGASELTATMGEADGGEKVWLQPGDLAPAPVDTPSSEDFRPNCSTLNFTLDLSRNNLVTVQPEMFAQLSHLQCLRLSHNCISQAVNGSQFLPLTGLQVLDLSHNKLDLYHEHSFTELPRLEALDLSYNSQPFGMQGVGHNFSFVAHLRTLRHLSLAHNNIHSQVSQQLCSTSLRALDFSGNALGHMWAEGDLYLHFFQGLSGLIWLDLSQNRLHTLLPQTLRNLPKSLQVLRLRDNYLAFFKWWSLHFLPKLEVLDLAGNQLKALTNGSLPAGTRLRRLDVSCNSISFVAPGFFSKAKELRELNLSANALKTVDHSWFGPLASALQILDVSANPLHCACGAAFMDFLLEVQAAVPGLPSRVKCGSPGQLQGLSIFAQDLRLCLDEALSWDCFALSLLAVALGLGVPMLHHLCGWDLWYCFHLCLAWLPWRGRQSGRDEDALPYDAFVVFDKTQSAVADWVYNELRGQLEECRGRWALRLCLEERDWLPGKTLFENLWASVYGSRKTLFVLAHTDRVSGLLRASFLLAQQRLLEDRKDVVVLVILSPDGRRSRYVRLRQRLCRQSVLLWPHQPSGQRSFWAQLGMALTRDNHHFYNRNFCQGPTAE
Nature of the test: Inhibition of fetal DNA induced I-kappa-B degradation in Namalwa cells by TLR9 inhibitors. Type of test: cell-based. As to conditions: Namalwa cells pre-treated at 75 μM, then fetal DNA 3.0 μg/ml. The method, then:
Inhibition of Toll-like Receptor 9 was carried out using the Toll-like Receptor 9 antagonist cholorquine and a synthetic inhibitory oligodinucleotide (TTAGGG) which was obtained from InvivoGen. […] The recommended concentration from package inserts was to use a 10-100 microM concentration. […] The same fetal DNA (3.0 μg/ml) was then used to stimulate cells over time in minutes as described above.
Namalwa cells (2.0×10^7 cells/ml) were also incubated with synthetic inhibitory TLR-9 oligonucleotide (ODN+) at an 8:1 ratio of oligodinucleotide (ODN) to ligand. The package insert recommended a 1-10:1 ratio of inhibitory oligodinucleotide (ODN) to stimulatory oligodinucleotide (ODN). […] This was followed by stimulation with the same purchased fetal DNA at 3.0 μg/ml using the method described hereinbefore.
In FIGS. 5A and 6A Namalwa cells (2.0×10^7 cells/ml) were incubated with the inhibitory TLR-9 oligonucleotide (ODN+) in an 8:1 ratio of ODN to ligand. This was followed by stimulation with fetal DNA at a concentration of 3.0 μg/ml.
In FIGS. 5B and 6B, the TLR9 antagonist cholorquine was used to pre-treat Namalwa cells at 2.0×10^7 cells/ml at a concentration of 75 μM. Fetal DNA (3.0 microg/ml) was then used to stimulate cells over time in minutes.

With `CCN(CC)CCCC(C)Nc1ccnc2cc(Cl)ccc12` (centres unmarked) [chloroquine, N′-(7-chloroquinolin-4-yl)-N,N-diethyl-pentane-1,4-diamine], the “inhibition of fetal DNA induced I-kappa-B degradation” value is reported as “can also inhibit this response; also recorded: Induction of I-kappa-B degradation was inhibited; also recorded: blocked the effect of fetal DNA on I-kappaB degradation”. Further, where the note is “listed as Chloroquine”, the “inhibition of fetal DNA induced I-kappa-B degradation” value is “blocked I-kappa-B degradation; also recorded: blocked 1-kappa-B degradation”.
